# According to US9145397B2, “Process for the preparation of 1-(2-methyl-4-(2,3,4,5-tetrahydro-1-benzazepin-1-ylcarbonyl) benzylcarbamoyl)-L-proline-N, N-dimethylamide” (Vantia Limited, priority 2011, dated 2015):
# Legend:
# [1] = target: T1, vasopressin V2 receptor (Rattus norvegicus, UniProt Q00788); assay: in vivo assay described in PCT/GB2001/000023 (inhibition of urine output); conditions: at 1 hour; dosed at 1 mg/Kg
# T1 construct: from tissue; host or cells: whole animal, in vivo (endogenous receptor)
# Text: The ability of the crystalline form of the invention to agonise the vasopressin V2 receptor may be determined using the in vivo assay described in PCT/GB2001/000023.
# [2] = Gravimetric Vapour Sorption Analysis (GVA); assay type: physicochemical; conditions: amorphous solid prepared as in PCT/GB2001/000023
# Text: 1-(2-methyl-4-(2,3,4,5-tetrahydro-1-benzazepin-1-ylcarbonyl)benzylcarbamoyl)-L-proline-N,N-dimethylamide was first described in international patent application WO 2001/049682 (PCT/GB2001/000023). […] Moreover, scanning electron micrographs (SEM) of this amorphous form show it to consist of irregular, predominantly large (>5 μm in diameter) aggregates. These properties of the amorphous form render it less suitable for use in a manufacturing process.
# T1 sequence (Q00788 whole entry): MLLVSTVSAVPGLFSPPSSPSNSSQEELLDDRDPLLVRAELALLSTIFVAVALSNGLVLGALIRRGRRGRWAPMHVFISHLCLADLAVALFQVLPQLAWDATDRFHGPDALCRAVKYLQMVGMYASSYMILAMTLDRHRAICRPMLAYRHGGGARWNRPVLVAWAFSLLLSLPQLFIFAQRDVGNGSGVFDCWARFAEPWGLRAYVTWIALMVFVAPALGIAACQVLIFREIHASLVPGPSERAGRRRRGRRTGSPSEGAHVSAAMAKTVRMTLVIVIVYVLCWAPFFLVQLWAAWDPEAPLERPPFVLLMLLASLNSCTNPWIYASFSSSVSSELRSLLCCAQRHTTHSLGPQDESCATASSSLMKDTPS
inhibition of urine output [1] [%],hygroscopicity by Gravimetric Vapour Sorption Analysis (GVA) [2],SMILES
82,–,"Cc1cc(C(=O)N2CCCCc3ccccc32)ccc1CNC(=O)N1CCC[C@H]1C(=O)N(C)C [1-(2-methyl-4-(2,3,4,5-tetrahydro-1-benzazepin-1-ylcarbonyl)benzylcarbamoyl)-L-proline-N,N-dimethylamide]"
–,hygroscopic,"Cc1cc(C(=O)N2CCCCc3ccccc32)ccc1CNC(=O)N1CCC[C@H]1C(=O)N(C)C [amorphous form, 1-(2-methyl-4-(2,3,4,5-tetrahydro-1-benzazepin-1-ylcarbonyl)benzylcarbamoyl)-L-proline-N,N-dimethylamide]"
